Measurements taken from paper PMC11964933, “Site-specific activation of the proton pump inhibitor rabeprazole by tetrathiolate zinc centres” (Nature Chemistry, 2025).
Substitutions are numbered along the chain they refer to.

Columns and labels:
[1] = target: T1, His-DENR–MCTS1 complex (recombinant WT DENR; DENR* = C13A/C132A/C154A) (Homo sapiens, UniProt O43583, C13A/C132A/C154A); assay: differential alkylation LC-MS; intact protein MS; Zn release (PAR); format: binding; conditions: covalent; 25 µM rabeprazole, fivefold excess, 15 min, r.t., pH 7.5; site C44
T1 construct: His-tagged DENR co-expressed with MCTS1 in Escherichia coli; heterodimeric complex; C4 zinc site C34/C37/C44/C53
T1 sequence (O43583 2-198 C13A/C132A/C154A): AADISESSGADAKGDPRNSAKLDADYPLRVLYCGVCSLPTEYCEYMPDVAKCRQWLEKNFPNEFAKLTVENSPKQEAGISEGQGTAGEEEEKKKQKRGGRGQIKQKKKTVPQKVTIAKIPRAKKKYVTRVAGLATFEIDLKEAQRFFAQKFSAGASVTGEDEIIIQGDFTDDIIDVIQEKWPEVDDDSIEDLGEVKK
T1 sequence (Q9ULC4 1-181 partner): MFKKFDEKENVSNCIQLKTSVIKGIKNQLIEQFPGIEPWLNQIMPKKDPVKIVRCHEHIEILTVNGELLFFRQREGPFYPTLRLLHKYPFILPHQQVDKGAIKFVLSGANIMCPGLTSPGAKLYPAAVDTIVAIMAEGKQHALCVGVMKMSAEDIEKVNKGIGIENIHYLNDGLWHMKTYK

[2] = target: T2, 15N-labelled DENR26–98–MCTS1 complex (Homo sapiens, UniProt O43583); assay: 1H NMR and 1H-15N HSQC; format: binding; conditions: covalent; fivefold excess, pH 7.5, 298 K
T2 construct: gene DENR; DENR residues 26-98, 15N-labelled, in complex with MCTS1
T2 sequence (O43583 26-98): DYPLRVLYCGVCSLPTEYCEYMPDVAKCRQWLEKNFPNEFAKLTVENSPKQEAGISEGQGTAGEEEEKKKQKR
T2 sequence (Q9ULC4 1-181 partner): T1 sequence (Q9ULC4 1-181 partner)

[3] = target: T3, His-DENR–MCTS1 complex (recombinant WT DENR; DENR* = C13A/C132A/C154A) (Homo sapiens, UniProt O43583); assay: LC-MS/MS adduct mapping; format: binding; conditions: covalent; fivefold excess, iodoacetamide, 15 min, r.t., pH 7.5; sites C44 and C34
T3 construct: His-tagged DENR co-expressed with MCTS1 in Escherichia coli; heterodimeric complex; C4 zinc site C34/C37/C44/C53
T3 sequence (O43583 2-198): T1 sequence (O43583 2-198 C13A/C132A/C154A) with A12C, A131C, A153C
T3 sequence (Q9ULC4 1-181 partner): T1 sequence (Q9ULC4 1-181 partner)

[4] = target: T3, His-DENR–MCTS1 complex (recombinant WT DENR; DENR* = C13A/C132A/C154A); assay: in-gel Cy5 labelling after click chemistry; format: binding; conditions: covalent; with NEM; zinc-dependent
[5] = target: T4, SBP-DENR (SBP-DENR* = C13A/C132A/C154A) (Homo sapiens, UniProt O43583); assay: affinity purification and click Cy5 in-gel labelling; format: cell-based; conditions: covalent; intact HEK293 MSR cells, 10 µM, 15 min, 37 °C
T4 sequence (O43583 1-198): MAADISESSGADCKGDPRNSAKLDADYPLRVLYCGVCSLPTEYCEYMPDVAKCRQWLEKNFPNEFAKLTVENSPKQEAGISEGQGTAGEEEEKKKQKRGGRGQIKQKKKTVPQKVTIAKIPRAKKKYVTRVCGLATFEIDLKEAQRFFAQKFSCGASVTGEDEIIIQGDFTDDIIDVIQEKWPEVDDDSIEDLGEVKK

| occupancy [1] | SMILES | 1H NMR and 1H-15N HSQC [2] | LC-MS/MS adduct mapping [3] | in-gel Cy5 labelling after click chemistry [4] | affinity purification and click Cy5 in-gel labelling [5] |
| --- | --- | --- | --- | --- | --- |
| ~ 80% | COCCCOc1ccnc(C[S+]([O-])c2nc3ccccc3[nH]2)c1C (centres unmarked) [rabeprazole] | DENR exhibited time-dependent chemical shift perturbations of the amide peaks during incubation with rabeprazole | we identified the hydrolysed form of rabeprazole on cysteines C44 | – | – |
| – | Cc1c(OCCCN=[N+]=[N-])ccnc1C[S+]([O-])c1nc2ccccc2[nH]1 (centres unmarked) [Rabazi] | – | – | Rabazi conjugation to recombinant DENR leads to a rather weak and diffuse band | led to the formation of an SBP-DENR–Rabazi disulfide conjugate |
